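Each compound was tested at five concentrations against cells in 96-well plates for 48 hours. GI50: concentration for 50% inhibition of growth. TGI denotes the concentration required for complete inhibition of growth.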
What was measured:
Test in all cases: growth of human tumour cells (NCI), 48 h
[1] = test system: CAKI-1 renal
[2] = test system: CCRF-CEM leukemia
[3] = test system: DU-145 prostate
[4] = test system: RPMI-8226 leukemia
[5] = test system: SK-MEL-2 melanoma
[6] = test system: SK-OV-3 ovarian
[7] = test system: SR leukemia
[8] = test system: ACHN renal
[9] = test system: HL-60(TB) leukemia
[10] = test system: HT29 colon
[11] = test system: K-562 leukemia
[12] = test system: MOLT-4 leukemia
[13] = test system: NCI-H23 lung
[14] = test system: RXF 393 renal
[15] = test system: 786-0 renal
[16] = test system: A498 renal
[17] = test system: A549 NSCLC
[18] = test system: BT-549 breast
[19] = test system: COLO 205 colon
[20] = test system: EKVX NSCLC
[21] = test system: HCC-2998 colon
[22] = test system: HCT-116 colon
[23] = test system: HCT-15 colon
[24] = test system: HOP-62 NSCLC
[25] = test system: HOP-92 NSCLC
[26] = test system: HS 578T breast
[27] = test system: IGROV1 ovarian
[28] = test system: LOX IMVI melanoma
[29] = test system: M14 melanoma
[30] = test system: MALME-3M melanoma
[31] = test system: MCF7 breast
[32] = test system: MDA-MB-231 breast
[33] = test system: MDA-MB-435
[34] = test system: NCI-H226 lung
[35] = test system: NCI-H460 lung
[36] = test system: NCI-H522 lung
[37] = test system: NCI/ADR-RES ovarian
[38] = test system: OVCAR-3 ovarian
[39] = test system: OVCAR-4 ovarian
[40] = test system: OVCAR-5 ovarian
[41] = test system: OVCAR-8 ovarian
[42] = test system: PC-3 prostate
[43] = test system: SF-268 CNS
[44] = test system: SF-295 CNS
[45] = test system: SF-539 CNS
[46] = test system: SK-MEL-28 melanoma
[47] = test system: SK-MEL-5 melanoma
[48] = test system: SN12C renal
[49] = test system: SNB-19 CNS
[50] = test system: SNB-75 CNS
[51] = test system: SW-620 colon
[52] = test system: TK-10 renal
[53] = test system: U251 CNS
[54] = test system: UACC-257 melanoma
[55] = test system: UACC-62 melanoma
[56] = test system: UO-31 renal

Structure (SMILES): N=C(N)c1ccc(-c2ccc(-c3ccc(Cl)cc3Cl)s2)cc1F
- GI50 [1]: 1.63 µM
- TGI [1]: 2.99 µM
- GI50 [2]: 1.8 µM
- TGI [2]: 4.67 µM
- GI50 [3]: 1.78 µM
- TGI [3]: 3.16 µM
- GI50 [4]: 2.07 µM
- TGI [4]: 4.57 µM
- GI50 [5]: 2.21 µM
- TGI [5]: 5.2 µM
- GI50 [6]: 3.05 µM
- TGI [6]: 17.5 µM
- GI50 [7]: 1.42 µM
- TGI [7]: > 100 µM

Structure (SMILES): C(=C\c1n(Cc2ccc3ccccc3c2)c(-c2ccccc2)c(-c2ccccc2)[n+]1Cc1ccc2ccccc2c1)/c1ccccc1
- GI50 [8]: 0.239 µM
- TGI [8]: 0.591 µM
- GI50 [2]: 0.406 µM
- TGI [2]: 2.09 µM
- GI50 [9]: 0.2 µM
- TGI [9]: 0.635 µM
- GI50 [10]: 0.142 µM
- TGI [10]: 1.09 µM
- GI50 [11]: 0.222 µM
- TGI [11]: 5 µM
- GI50 [12]: 0.292 µM
- TGI [12]: 1.26 µM
- GI50 [13]: 0.257 µM
- TGI [13]: 0.919 µM
- GI50 [4]: 0.0758 µM
- TGI [4]: 0.621 µM
- GI50 [14]: 0.26 µM
- TGI [14]: 1.14 µM
- GI50 [7]: 0.313 µM
- TGI [7]: > 100 µM

Structure (SMILES): NC(=NCCCOc1ccc(Cl)cc1)Nc1ccc(Cl)cc1
- GI50 [15]: 2.15 µM
- TGI [15]: 6.67 µM
- GI50 [16]: 1.92 µM
- TGI [16]: 5.43 µM
- GI50 [17]: 3.48 µM
- TGI [17]: 12.7 µM
- GI50 [8]: 2.01 µM
- TGI [8]: 5.31 µM
- GI50 [18]: 3.35 µM
- TGI [18]: 10 µM
- GI50 [1]: 2.77 µM
- TGI [1]: 9.11 µM
- GI50 [2]: 2.11 µM
- TGI [2]: 6.74 µM
- GI50 [19]: 1.17 µM
- TGI [19]: 2.75 µM
- GI50 [3]: 2.67 µM
- TGI [3]: 7.73 µM
- GI50 [20]: 3.87 µM
- TGI [20]: 13.3 µM
- GI50 [21]: 1.5 µM
- TGI [21]: 3.12 µM
- GI50 [22]: 1.61 µM
- TGI [22]: 3.24 µM
- GI50 [23]: 2.98 µM
- TGI [23]: 9.29 µM
- GI50 [9]: 1.88 µM
- TGI [9]: 4.58 µM
- GI50 [24]: 2.53 µM
- TGI [24]: 8.01 µM
- GI50 [25]: 1.51 µM
- TGI [25]: 5.53 µM
- GI50 [26]: 3.39 µM
- TGI [26]: 14 µM
- GI50 [10]: 2.12 µM
- TGI [10]: 5.95 µM
- GI50 [27]: 2.02 µM
- TGI [27]: 5.83 µM
- GI50 [11]: 1.85 µM
- TGI [11]: 4.32 µM
- GI50 [28]: 1.6 µM
- TGI [28]: 2.98 µM
- GI50 [29]: 1.67 µM
- TGI [29]: 3.39 µM
- GI50 [30]: 1.95 µM
- TGI [30]: 4.14 µM
- GI50 [31]: 2.2 µM
- TGI [31]: 7.35 µM
- GI50 [32]: 1.97 µM
- TGI [32]: 4.56 µM
- GI50 [33]: 1.76 µM
- TGI [33]: 3.37 µM
- GI50 [12]: 1.66 µM
- TGI [12]: 4.66 µM
- GI50 [34]: 3.97 µM
- TGI [34]: 19.6 µM
- GI50 [13]: 2.31 µM
- TGI [13]: 7.43 µM
- GI50 [35]: 2.7 µM
- TGI [35]: 7.94 µM
- GI50 [36]: 2.05 µM
- TGI [36]: 4.8 µM
- GI50 [37]: 3.03 µM
- TGI [37]: 9.92 µM
- GI50 [38]: 2.84 µM
- TGI [38]: 8.09 µM
- GI50 [39]: 2.3 µM
- TGI [39]: 7.9 µM
- GI50 [40]: 2.02 µM
- TGI [40]: 6.56 µM
- GI50 [41]: 3.16 µM
- TGI [41]: 12.1 µM
- GI50 [42]: 2.1 µM
- TGI [42]: 6.29 µM
- GI50 [4]: 2.1 µM
- TGI [4]: 4.66 µM
- GI50 [14]: 1.86 µM
- TGI [14]: 6.97 µM
- GI50 [43]: 3.1 µM
- TGI [43]: 13 µM
- GI50 [44]: 2.42 µM
- TGI [44]: 6.9 µM
- GI50 [45]: 1.83 µM
- TGI [45]: 3.72 µM
- GI50 [5]: 2.32 µM
- TGI [5]: 4.72 µM
- GI50 [46]: 1.89 µM
- TGI [46]: 3.64 µM
- GI50 [47]: 1.74 µM
- TGI [47]: 3.16 µM
- GI50 [6]: 3.31 µM
- TGI [6]: 12.3 µM
- GI50 [48]: 2.75 µM
- TGI [48]: 10.9 µM
- GI50 [49]: 2.46 µM
- TGI [49]: 13.6 µM
- GI50 [50]: 0.725 µM
- TGI [50]: 11.8 µM
- GI50 [7]: 2.17 µM
- TGI [7]: 5.9 µM
- GI50 [51]: 1.94 µM
- TGI [51]: 5.59 µM
- GI50 [52]: 1.75 µM
- TGI [52]: 3.89 µM
- GI50 [53]: 2.65 µM
- TGI [53]: 8.36 µM
- GI50 [54]: 1.91 µM
- TGI [54]: 3.84 µM
- GI50 [55]: 1.88 µM
- TGI [55]: 3.94 µM
- GI50 [56]: 2.17 µM
- TGI [56]: 8.1 µM

Structure (SMILES): C/C=C1\NC(=O)[C@H](Cc2ccccc2)NC(=O)[C@@H](C(C)C)NC(=O)[C@@H]([C@@H](C)CC)NC(=O)[C@H](NC(=O)[C@H](NC(=O)[C@H](CCCN)NC(=O)[C@H]2CCCN2C(=O)[C@H](NC(=O)[C@@H](NC(=O)[C@@H](NC(=O)[C@H](NC(=O)CCCC(C)C)C(C)C)[C@@H](C)O)C(C)C)C(C)C)[C@@H](C)CC)[C@@H](C)OC(=O)[C@H](C(C)C)NC1=O
- TGI [18]: 12 µM
- TGI [34]: 4.24 µM
- TGI [13]: 15.2 µM
- GI50 [54]: 1.02 µM
- TGI [54]: 2.84 µM

Structure (SMILES): O=C1C(/C=C/c2ccc(Cl)cc2)=NNC2N1N=C1NC(=O)C3(NN12)c1ccccc1-c1ccccc13 (stereo not given)
- TGI [15]: > 100 µM
- TGI [16]: > 100 µM
- TGI [17]: > 100 µM
- TGI [8]: > 100 µM
- TGI [18]: > 100 µM
- TGI [1]: > 100 µM
- TGI [2]: > 100 µM
- TGI [19]: > 100 µM
- TGI [3]: > 100 µM
- TGI [20]: > 100 µM
- TGI [21]: > 100 µM
- TGI [22]: > 100 µM
- TGI [23]: > 100 µM
- TGI [9]: > 100 µM
- TGI [24]: > 100 µM
- TGI [25]: > 100 µM
- TGI [26]: > 100 µM
- TGI [10]: > 100 µM
- TGI [27]: > 100 µM
- TGI [11]: > 100 µM
- TGI [28]: > 100 µM
- TGI [29]: > 100 µM
- TGI [30]: > 100 µM
- TGI [31]: > 100 µM
- TGI [32]: > 100 µM
- TGI [33]: > 100 µM
- TGI [34]: > 100 µM
- TGI [13]: > 100 µM
- TGI [35]: > 100 µM
- TGI [36]: > 100 µM
- TGI [37]: > 100 µM
- TGI [38]: > 100 µM
- TGI [39]: > 100 µM
- TGI [40]: > 100 µM
- TGI [41]: > 100 µM
- TGI [42]: > 100 µM
- TGI [14]: > 100 µM
- TGI [43]: > 100 µM
- TGI [44]: > 100 µM
- TGI [45]: > 100 µM
- TGI [5]: > 100 µM
- TGI [46]: > 100 µM
- TGI [47]: > 100 µM
- TGI [6]: > 100 µM
- TGI [48]: > 100 µM
- TGI [49]: > 100 µM
- TGI [50]: > 100 µM
- TGI [7]: 60.3 µM
- TGI [51]: > 100 µM
- TGI [52]: > 100 µM
- TGI [53]: > 100 µM
- TGI [54]: > 100 µM
- TGI [55]: > 100 µM
- TGI [56]: > 100 µM
